Laboratory results from PubChem BioAssay (NCI).
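Cells were grown in 96-well plates and exposed to each compound for 48 hours at five concentrations; endpoints were interpolated linearly between bracketing concentrations, or set to the highest concentration if not reached. Abbreviation: GI50, concentration required for 50% inhibition of growth. The concentration for full growth arrest is given as TGI.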

What was measured:
Assay in all cases: NCI tumour cell line growth inhibition, 48 h
CAKI-1 renal = system: CAKI-1 renal
HT29 colon = system: HT29 colon
K-562 leukemia = system: K-562 leukemia
M14 melanoma = system: M14 melanoma
OVCAR-5 ovarian = system: OVCAR-5 ovarian
PC-3 prostate = system: PC-3 prostate
RXF 393 renal = system: RXF 393 renal
SN12C renal = system: SN12C renal
SNB-19 CNS = system: SNB-19 CNS
T-47D breast = system: T-47D breast

SMILES	TGI (CAKI-1 renal)	TGI (HT29 colon)	GI50 (K-562 leukemia)	TGI (K-562 leukemia)	GI50 (M14 melanoma)	TGI (M14 melanoma)	GI50 (OVCAR-5 ovarian)	TGI (OVCAR-5 ovarian)	GI50 (PC-3 prostate)	TGI (PC-3 prostate)	GI50 (RXF 393 renal)	TGI (RXF 393 renal)	GI50 (SN12C renal)	TGI (SN12C renal)	TGI (SNB-19 CNS)	GI50 (T-47D breast)	TGI (T-47D breast)	GI50 (CAKI-1 renal)	GI50 (HT29 colon)	GI50 (SNB-19 CNS)
O=C1C=C[C@@]23C[C@@H](Nc4c(O)c5c6c(c42)=NCCC=6C=N5)SC3=C1	32.1 µM	7.39 µM	2.66 µM	> 21.9 µM	2.16 µM	5.05 µM	5.13 µM	9.5 µM	2.42 µM	7.61 µM	2.51 µM	8.81 µM	2.36 µM	5.16 µM	30.6 µM	2.96 µM	7.47 µM			
COc1cc(C(O)c2nc3ccccc3s2)cc(OC)c1OC (stereo not drawn)	93.9 µM	> 100 µM	3.6 µM	> 100 µM	85.3 µM	> 100 µM	> 100 µM	> 100 µM	15.9 µM	> 100 µM	> 100 µM	> 100 µM	> 100 µM	> 100 µM	> 100 µM	17.3 µM	> 100 µM	4.89 µM	> 100 µM	> 100 µM
O=Cc1cn(Cc2cccc(Cl)c2)c2ccccc12	1.89 µM	32.3 µM	2.97 µM	> 56.7 µM	11.4 µM	26.9 µM	0.0263 µM	0.504 µM	5.76 µM	22.4 µM		> 33 µM	10.7 µM	23.5 µM	27.3 µM	0.736 µM	13.4 µM	0.214 µM	13 µM	12.9 µM
COc1ccc2c(c1)c(-c1nc(-c3c[nH]c4ncccc34)cs1)cn2CCCCN1CCOCC1	3.79 µM	3.94 µM	1.95 µM	3.99 µM	1.81 µM	3.62 µM	1.99 µM	4.02 µM	1.75 µM	4.26 µM	1.73 µM	3.38 µM	1.91 µM	4.19 µM		2.12 µM	6.5 µM	1.8 µM	2.18 µM	
Cn1ccnc1C(=O)/C=C/c1ccc(CC(=O)Nc2ccc(S(F)(F)(F)(F)F)cc2)cc1	5.72 µM	7.2 µM	0.549 µM	16.7 µM	3.16 µM	6.55 µM	2.12 µM	5.1 µM	0.534 µM	2.03 µM	2.67 µM	5.21 µM	2.93 µM	7.17 µM	4.82 µM	3.1 µM	10.4 µM	2.66 µM	3.25 µM	2.23 µM
CC(C)[C@@]12C[C@@H](OC(=O)COC(=O)/C=C/c3ccccc3)[C@@](C)(O1)[C@@H]1CC[C@@H](C)[C@H]1[C@@H]2OC(=O)/C=C/c1ccccc1		> 100 µM	> 78.1 µM	> 100 µM	> 100 µM	> 100 µM	> 100 µM	> 100 µM	> 100 µM	> 100 µM	0.618 µM	> 100 µM	1.42 µM	> 100 µM	> 100 µM	> 100 µM	> 100 µM	0.0813 µM	> 100 µM	> 100 µM
COc1ccc(C(=O)/C=C/c2c(C(F)(F)F)nc3sccn23)cc1OC	> 100 µM	> 100 µM	2.25 µM	> 100 µM	2.67 µM	> 100 µM	4.18 µM	39.1 µM	5.39 µM	> 100 µM	2.51 µM	29.8 µM	2.98 µM	> 100 µM	> 100 µM	2.9 µM	40.7 µM	2.46 µM	2.01 µM	4.25 µM
Cc1nc2sc(C(=O)Nc3cccc4ccccc34)c(N)c2cc1C(=O)/C=C/c1ccccc1	1.44 µM	1.06 µM	0.191 µM	> 50 µM	0.181 µM	1.68 µM	0.813 µM	2.61 µM	0.282 µM	4.48 µM	0.203 µM	0.776 µM	0.415 µM	1.88 µM	> 17 µM	0.724 µM	> 11 µM	0.422 µM	0.173 µM	0.534 µM
C=CC1=C[C@@H]2[C@@H]3O[C@]4(CC[C@H](O4)[C@@H](C)C[C@@H](O)C3=O)C[C@H](O)C3=NCC[C@@]32CC1	0.00617 µM		< 0.00333 µM	> 33.3 µM	< 0.00333 µM	< 0.00333 µM	< 0.00333 µM	0.00513 µM	< 0.00333 µM	0.0122 µM	< 0.00333 µM	< 0.00333 µM	< 0.00333 µM	0.011 µM	< 0.00333 µM	< 0.00333 µM	0.00634 µM	< 0.00333 µM	< 0.00333 µM	< 0.00333 µM
CCc1cccc2c3c(sc12)C(c1ccc(Cl)cc1)C(C#N)=C(N)O3 (stereo not drawn)	14 µM	3.61 µM	0.391 µM	> 100 µM	0.472 µM	4.79 µM	1.42 µM	8.93 µM	0.39 µM	10.7 µM	0.258 µM	0.976 µM	0.805 µM	12.5 µM	12.1 µM	0.493 µM	16.1 µM	0.403 µM	0.457 µM	0.499 µM
C/C(=C\c1ccn(-c2ccc(N)c(F)c2)n1)[C@@H]1C[C@@H]2O[C@]2(C)CCC[C@H](C)[C@H](O)[C@@H](C)C(=O)C(C)(C)[C@@H](O)CC(=O)O1	> 50 µM	> 15.9 µM	0.00912 µM	> 50 µM			0.0472 µM	> 50 µM	0.0139 µM	> 50 µM	0.0119 µM	0.109 µM	0.0389 µM	> 50 µM	> 50 µM	0.0249 µM	> 50 µM	0.0802 µM	0.00756 µM	0.048 µM
NC(=O)c1cc([N+](=O)[O-])c(Cl)c([N+](=O)[O-])c1	7.12 µM	5.51 µM			1.91 µM	4.72 µM	5.53 µM	17.6 µM	1.91 µM	4.26 µM	1.69 µM	3.11 µM	1.8 µM	3.57 µM	29.5 µM	2.32 µM	5.12 µM	2.59 µM	2.58 µM	15.3 µM
